From US20230278972A1, “SUBSTITUTED HALOALKYL SULFONANILIDE HERBICIDES” (FMC Corporation, priority 2020, published 2023)

How the values were obtained:
Format in all cases: in vivo
soybean (Glycine max) = assay: Test A1 postemergence, soybean; settings: Postemergence
Procedure, shortened: (§1)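 Herbicidal response was scored on plants treated either preemergence, by directed spray onto soil of a loam–sand blend after sowing, or postemergence on potted plants at the one- to two-leaf stage, 2–10 cm high. Test chemicals were carried in a non-phytotoxic solvent mix with surfactant.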

[1] = tested on: Ryegrass, Italian (Italian ryegrass, Lolium multiflorum); assay: Test A1 preemergence, Ryegrass, Italian
Procedure, shortened: (§2)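 Both timings started from seed in a loam-sand blend. Preemergence pots got a directed soil application immediately; postemergence pots were sprayed when seedlings had one or two leaves and stood 2–10 cm. Each compound was prepared in a non-phytotoxic solvent plus surfactant.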

kochia (Bassia scoparia) = assay: Test A1 preemergence, kochia
Procedure, shortened: as §2

rice (Oryza sativa) = assay: Test B1 flooded paddy test, rice; settings: 250 g ai/ha, Flood, applied to paddy water, 2-leaf stage, visually evaluated after 10 to 14 days
Excerpt: A dash (-) response means no test result.

[2] = tested on: wheat (Triticum aestivum); assay: Test A1 preemergence, wheat
Procedure, shortened: as §2

corn (Zea mays) = assay: Test A1 postemergence, corn; settings: Postemergence
Procedure, shortened: as §2

[3] = tested on: Foxtail, Giant (giant foxtail, Setaria faberi); assay: Test A1 postemergence, Foxtail, Giant; settings: Postemergence
Procedure, shortened: as §1

[4] = tested on: horseweed (Erigeron canadensis); assay: Test A1 postemergence, horseweed; settings: Postemergence
Procedure, shortened: as §1

[5] = tested on: Foxtail, Giant (giant foxtail, Setaria faberi); assay: Test A1 preemergence, Foxtail, Giant
Procedure, shortened: as §2

[6] = 31 g ai/ha, 0 to 100 scale (0 no effect, 100 complete control), 10 days
[7] = 31 g ai/ha, 0 to 100 scale (0 no effect, 100 complete control)
[8] = 125 g ai/ha, 0 to 100 scale, 0 no effect, 100 complete control

SMILES	Plant response rating, Soybean (soybean (Glycine max); [6])	Plant response rating, Soybean (soybean (Glycine max); 125 g ai/ha, 0 to 100 scale)	Plant response rating, Ryegrass, Italian [1, 7]	Plant response rating, Ryegrass, Italian [1, 8]	Plant response rating, Kochia (kochia (Bassia scoparia); [7])	Plant response rating, Kochia (kochia (Bassia scoparia); [8])	Plant response rating, Rice (0 to 100 scale, 0 is no effect, 100 is complete control) (rice (Oryza sativa))	Plant response rating, Wheat [2, 7]	Plant response rating, Wheat [2, 8]	Plant response rating, Corn (corn (Zea mays); [6])	Plant response rating, Corn (corn (Zea mays); 125 g ai/ha, 0 to 100 scale)	Plant response rating, Foxtail, Giant [3, 6]	Plant response rating, Foxtail, Giant ([3]; 125 g ai/ha, 0 to 100 scale)	Plant response rating, Horseweed [4, 6]	Plant response rating, Horseweed ([4]; 125 g ai/ha, 0 to 100 scale)	Plant response rating, Foxtail, Giant [5, 7]	Plant response rating, Foxtail, Giant [5, 8]
Cc1c(C(=O)N2CCOCC2)cc(NS(=O)(=O)C(F)(F)F)c(Cl)c1F [Compound 321]	20	40	60	60	80	90	10	0	80	10	20	0	0	70	80	30	100
Cc1cc(C)c(C2=NOC(OCC(C)C)C2)cc1NS(=O)(=O)C(F)(F)F (centres unmarked) [Compound 322]	20	30	60	90	0	20	0	0	50	0	0	0	40	0	40	40	80
CCCCOC1CC(c2cc(NS(=O)(=O)C(F)(F)F)c(C)cc2C)=NO1 (centres unmarked) [Compound 323]	0	30	40	90	20	90	0	0	50	0	0	10	50	0	50	50	90
CCOC(=O)N(c1cc(C(=O)N2CCOCC2)c(C)c(C)c1C)S(=O)(=O)C(F)(F)F [Compound 325]	50	80	40	90	20	70	15	20	60	10	30	30	90	90	90	30	100
Cc1c(C(=O)N2CCCCC2)cc(N(COC(=O)C(C)(C)C)S(=O)(=O)C(F)(F)F)c(C)c1C [Compound 329, [[(Trifluoromethyl)sulfonyl][2,3,4-trimethyl-5-(1-piperidinylcarbonyl)phenyl]amino]methyl 2,2-dimethylpropanoate]	60	60	0	0	0	30	20	0	0	0	0	10	70	20	90	30	50
Cc1c(C(=O)N2C[C@@H](C)O[C@@H](C)C2)cc(N(COC(=O)C(C)(C)C)S(=O)(=O)C(F)(F)F)c(C)c1C [Compound 331]	60	70	0	0	0	20	0	0	0	10	50	20	80	70	80	0	70
CCOC(=O)N(c1cc(C(=O)N2C[C@@H](C)O[C@@H](C)C2)c(C)c(C)c1C)S(=O)(=O)C(F)(F)F [Compound 332]	60	100	0	20	20	60	0	10	40	0	50	30	90	60	80	100	100
Cc1c(C(=O)N2CCCCC2)cc(NS(=O)(=O)C(F)(F)F)c(Cl)c1F [Compound 333]	30	80	30	50	20	80	0	0	50	0	0	10	30	0	30	30	100
COC1CCCN(C(=O)c2cc(NS(=O)(=O)C(F)(F)F)c(Cl)c(F)c2C)C1 (centres unmarked) [Compound 334]	20	40	30	50	0	20	10	0	0	0	0	0	0	0	30	40	70
Cc1c(NS(=O)(=O)C(F)(F)F)cc(C2=NOC3CCCC23)c(C)c1C (centres unmarked) [Compound 335]	0	30	0	60	20	60	45	0	0	0	0	0	0	40	70	60	100
